Measurements published in patent US11447449B2, “Inhibitors of indoleamine 2,3-dioxygenase and methods of their use” (BRISTOL-MYERS SQUIBB COMPANY, priority 2018, dated 2022).
In brackets after ≈: the same amount, converted by molar mass. Where two headings read alike, the source gives them in different places.

Tests used:
[1] = target: T1, indoleamine 2,3-dioxygenase (IDO) (Homo sapiens, UniProt P14902); test: HeLa cell-based indoleamine 2,3-dioxygenase (IDO) assay, kynurenine production; settings: HeLa cells, IFNγ 25 ng/mL, 48 hour incubation
T1 construct: endogenous in cells; host or cells: HeLa (ATCC CCL-2), stimulated with IFN-gamma at 25 ng/mL
T1 sequence (P14902 whole entry): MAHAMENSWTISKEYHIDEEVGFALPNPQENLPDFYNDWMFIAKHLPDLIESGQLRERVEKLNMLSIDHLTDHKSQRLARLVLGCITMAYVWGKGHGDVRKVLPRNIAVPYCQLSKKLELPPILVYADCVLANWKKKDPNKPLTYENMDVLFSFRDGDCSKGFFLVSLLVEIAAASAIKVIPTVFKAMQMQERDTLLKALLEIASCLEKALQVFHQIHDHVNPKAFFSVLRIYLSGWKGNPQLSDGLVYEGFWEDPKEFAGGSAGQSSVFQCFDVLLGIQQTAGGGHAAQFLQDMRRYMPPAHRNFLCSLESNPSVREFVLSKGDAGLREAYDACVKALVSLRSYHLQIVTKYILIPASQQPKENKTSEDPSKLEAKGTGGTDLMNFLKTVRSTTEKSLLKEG
Procedure: Assessment of inhibitor activity in HeLa cell-based indoleamine 2,3-dioxygenase (IDO) assay:
HeLa (ATCC® CCL-2) cells were obtained from the ATCC® and cultured in Dulbecco's Modified Eagle Medium supplemented with 4.5 g/L glucose, […] (#10-013-CV, Corning), 2 mM L-alanyl-L-glutamine dipeptide (#35050-061, Gibco), 100U/mL penicillin, 100 μg/mL streptomycin (#SV30010, HyClone) and 10% fetal bovine serum (#SH30071.03 HyClone). Cells were maintained in a humidified incubator at 37° C. in 5% CO2.
IDO activity was assessed as a function of kynurenine production as follows: HeLa cells were seeded in a 96-well culture plate at a density of 5,000 cells/well and allowed to equilibrate overnight. After 24 hours, the media was aspirated and replaced with media containing IFNγ (#285-IF/CF, R&D Systems) at a final concentration of 25 ng/mL. A serial dilution of each test compound was added to the cells in a total volume of 200 μL of culture medium. […] Kynurenine concentrations were determined by measuring absorbance at 480 nm and calibrating against an L-kynurenine (#K8625, Sigma-Aldrich) standard curve using a SPECTRAMAX® M2e microplate reader (Molecular Devices). The percentage activity at each inhibitor concentration was determined and IC50 values assessed using nonlinear regression.

human IDO1 = target: T2, human IDO1 (Homo sapiens, UniProt P14902); test: Human IDO1/HEK293 cell IDO inhibition assay; format: cell-based; settings: human IDO1/HEK293 cells, 20 hours; read-out: IDO1 HEK Human IC50
T2 construct: expressed in transfected cells
T2 sequence (P14902 whole entry): as above
Procedure: HEK293 cells were transfected with a pCDNA-based mammalian expression vector harboring human IDO1 cDNA (NM 002164.2) by electroporation. They were cultured in medium (DMEM with 10% FBS) containing 1 mg/ml G418 for two weeks. Clones of HEK293 cells that stably expressed human IDO1 protein were selected and expanded for IDO inhibition assay.
The human IDO1/HEK293 cells were seeded at 10,000 cells per 50 μL per well with RPMI/phenol red free media contains 10% FBS in a 384-well black wall clear bottom tissue culture plate (Matrix Technologies LLC) 100 nL of certain concentration of compound was then added to each well using ECHO liquid handling systems. The cells were incubated for 20 hours in 37° C. incubator with 5% CO2.
The compound treatments were stopped by adding trichloroacetic acid (Sigma-Aldrich) to a final concentration at 0.2%. The cell plate was further incubated at 50° C. for 30 minute. The equal volume supernatant (20 μL) and 0.2% (w/v) Ehrlich reagent (4-dimethylaminobenzaldehyde, Sigma-Aldrich) in glacial acetic acid were mixed in a new clear bottom 384-well plate. This plate was then incubated at room temperature for 30 minute. The absorbance at 490 nm was measured on Envision plate reader. […]

[2] = Thermodynamic equilibrium aqueous solubility; format: physicochemical; settings: thermodynamic from solid, 18-24 hours at room temperature, read-out: Solubility (μg/mL) pH 1.0, 4.0, 6.5, 7.4 buffers
Procedure: Thermodynamic Equilibrium Aqueous Solubility Evaluation
The calibration standard is prepared by accurately weighing 0.3-0.7 mg of sample into 5 ml volumetric flask and then dissolved in pure methanol. If the standard material is not fully soluble in methanol, other solvents such as DMSO or mixed solvent systems can used.
The calibration standard is typically prepared fresh, before the start of the assay. Note the calibration standard must be fully dissolved. A single point calibration curve is used to determine the concentration of the final saturated solution.
The saturated solution is prepared by adding 1.0 ml of the appropriate aqueous solvent to the remaining portion/portions of material (˜1 mg/l ml) into the 1 dram submission vial. The solution is sonicated and vortexed for ˜30 seconds. The sample solution is placed on an orbiter that continually agitates the sample solutions for 18-24 hours at room temperature. The saturated solution is then transferred to a 1.5 ml eppendorf tube and centrifuged for ˜2 min. at 10000 rpms. The supernatant from the saturated solution is filtered, using a 0.45 μm PTFE syringe filter, into a 1.5 mL glass HPLC.
The standards and sample are analyzed by HPLC using either UV/Vis diode array or variable wavelength detection. Typical quantitation wavelengths are 210 or 254 nm; detection wavelength can be individually customized to optimize sensitivity. In addition to UV detection, mass spectrometry detection is recommended in order to confirm the Mass of the peak of interest.
Dilutions of saturated aqueous test solutions are performed if HPLC-UV peak is beyond the linear portion of the standard calibration curve. Typical dilutions include 100 μl/900 μl (×10) or 500 μl/500 μl (2×), as required.
HPLC grade solvents are employed.

[3] = aqueous buffer pH 1.0, simulated gastric fluid, pH 1.0 buffer
[4] = aqueous buffer pH 7.4, aqueous buffer, pH 7.4 buffer
[5] = aqueous buffer pH 4.0, aqueous buffer, pH 4.0 buffer
[6] = aqueous buffer pH 6.5, aqueous buffer, pH 6.5 buffer

| IC50 [1] [nM] | IC50 (human IDO1) [nM] | solubility [2, 3] [µg/mL] | solubility [2, 4] [µg/mL] | Structure (SMILES) | solubility [2, 5] [µg/mL] | solubility [2, 6] [µg/mL] |
| --- | --- | --- | --- | --- | --- | --- |
| 4.1 | 3.1 | 630 (≈ 1390 µM) | 1 (≈ 2.2 µM) | CC[C@@H](CC(=O)O)c1ccc(N(CC(C)C)CC(C)C)c(NC(=O)Nc2ccc(C)cc2)c1 [Example 1E, (S)-3-(4-(diisobutylamino)-3-(3-(p-tolyl)ureido)phenyl)pentanoic Acid] |  |  |
|  |  | 24 (≈ 36.9 µM) | 158 (≈ 243 µM) | CC[C@@H](CC(=O)OCOC(=O)CCCOP(=O)(O)O)c1ccc(N(CC(C)C)CC(C)C)c(NC(=O)Nc2ccc(C)cc2)c1 [Example 4, (S)-((4-(Phosphonooxy)butanoyl)oxy)methyl 3-(4-(diisobutylamino)-3-(3-(p-tolyl)ureido) Phenyl) Pentanoate] | > 500 | > 500 |

The remaining lines, values behind:

| Structure (SMILES) | IC50 [1] [nM] | IC50 (human IDO1) [nM] | solubility [2, 3] [µg/mL] | solubility [2, 4] [µg/mL] | solubility [2, 5] [µg/mL] | solubility [2, 6] [µg/mL] |
| --- | --- | --- | --- | --- | --- | --- |
| CCOP(=O)(O)OCOC(=O)C[C@H](CC)c1ccc(N(CC(C)C)CC(C)C)c(NC(=O)Nc2ccc(C)cc2)c1 [Example 9, (3S)-((Ethoxy(hydroxy)phosphoryl)oxy)methyl 3-(4-(diisobutylamino)-3-(3-(p-tolyl)ureido)phenyl)pentanoate] |  |  | 215 (≈ 363 µM) | > 2000 | > 1100 | > 2000 |
| CC[C@@H](CC(=O)OC(C)OC(=O)N(C)c1ncccc1COP(=O)(O)O)c1ccc(N(CC(C)C)CC(C)C)c(NC(=O)Nc2ccc(C)cc2)c1 (stereo partly drawn) [Example 20, (3S)-1-((Methyl(3-((phosphonooxy)methyl)pyridin-2-yl)carbamoyl)oxy)ethyl 3-(4-(diisobutylamino)-3-(3-(p-tolyl)ureido)phenyl)pentanoate] |  |  | 35 (≈ 47.2 µM) | > 500 | > 500 | > 500 |
| CC[C@@H](CC(=O)OCOC(=O)OCC(C)OP(=O)(O)O)c1ccc(N(CC(C)C)CC(C)C)c(NC(=O)Nc2ccc(C)cc2)c1 (stereo partly drawn) [Example 22, (3S)-(((2-(Phosphonooxy)propoxy)carbonyl)oxy)methyl 3-(4-(diisobutylamino)-3-(3-(p-tolyl)ureido)phenyl)pentanoate] |  |  | 15 (≈ 22.5 µM) | 16 (≈ 24 µM) | > 500 | 22 (≈ 33 µM) |
